In brackets after ≈: the same amount, converted by molar mass. Where two headings read alike, the source gives them in different places. Marks after values point to notes of the source that are not given here.
How the values were obtained:
S. aureus ATCC 29213 = experiment: MIC determination; type: cell-based, Staphylococcus aureus; conditions: for MIC: Staphylococcus aureus
E. faecium NCTC 7171 = experiment: MIC determination; type: cell-based, Enterococcus faecium; conditions: Enterococcus faecium
[1] = Fast pharmacokinetic (PK) studies; type: in vivo, mouse
Method: To rapidly ascertain the PK properties of the compounds, fast PK studies were conducted. These studies involve administration of the compounds using a limited number of animals (n=2 mice per time point) for a few time points. This allows us to rapidly compare the preliminary PK properties of the compounds, so that full PK studies are conducted only with the most promising compound(s). […] The alkyne substituted pyrazole 66b had the lowest clearance and the highest systemic exposure, as measured by area under the curve (AUC, Table 2).
(§1) Female ICR mice (6-8 weeks old, ˜20-g body weight) were used for the PK and peritonitis studies. Animals were purchased from Harlan Laboratories, Inc. (Indianapolis, Ind., USA) and given Teklad 2019 Extruded Rodent Diet and water ad libitum. Mice were maintained in polycarbonate shoebox cages with ¼″ corncob (The Andersons Inc., Maumee, Ohio) and Alpha-dri (Sheperd Specialty Papers, Inc., Richland, Mich.) bedding under 12-h light/12-h dark cycle at 72±2° F.
For fast PK studies, the compounds were dissolved in 10% DMSO/25% Tween-80/65% water at a concentration of 5 mg/mL. The dosing formulations were sterilized by filtration through a 0.2 μm, 13 mm diameter PTFE membrane attached to an Acrodisc syringe filter (Pall Life Sciences, Ann Arbor, Mich., USA). […] Terminal blood was collected at 5 min, 40 min, 2 h, 4 h, and 8 h; blood was centrifuged at 1200 g for 10 min to harvest plasma.
Plasma ([…], aliquot) was mixed with 100 μL of acetonitrile containing internal standard (final concentration 8 μg/mL). After centrifugation at 10000 g for 10 min, the supernatant was analyzed by ultraperformance liquid chromatography (UPLC) with UV detection at 285 nm. A Waters Acquity UPLC System (Waters Corporation, Milford, Mass., USA), consisting of a binary pump, an autosampler, a column heater, and a photodiode array detector was used. An Acquity UPLC C18 1.7 μm, 2.1 mm i.d.×50 mm column was used. Elution was at 0.5 mL/min with 70% A/30% B for 2 min, followed by a 10-min linear gradient to 10% A/90% B, then 70% A/30% B for 2 min, where A=0.1% formic acid/water and B=0.1% formic acid/acetonitrile. Monitoring was by UV detection at 285 nm. Calibration curves for each compound were prepared in control plasma containing internal standard. The concentrations in the PK samples were obtained using peak area ratio to the internal standard and the calibration curve regression analysis parameters. The methods were linear from 0.01 to 100 μg/mL; coefficients of determination R^2 range from 0.98 to 0.99.
The area under the curve (AUC), clearance (CL), volume of distribution (Vd), and terminal half-life were calculated using Phoenix WinNonlin 6.3 (Certara LP, St Louis, Mo., USA) noncompartmental analysis using uniform weighing. Half-lives were estimated from the linear portion of the initial or terminal phase of the concentration-time data by linear regression, where the slope of the line was the rate constant k and t1/2=ln 2/k.

HepG2 cells = experiment: XTT cytotoxicity assay; type: cell-based; conditions: for IC50: Homo sapiens
Method: We used the XTT assay with HepG2 cells to evaluate the in vitro toxicity of compounds 60b, 60c, 65b, 66b, 75b and 76b (Table 2). […] Compared to the lead 1, indole 75b was 5-fold less toxic.
The XTT cytotoxicity assay was performed in triplicated using HepG2 cells (ATCC HB-8065), as previously described (Tran et al., Am. J. Clin. Dermatol. 2015; doi 10.1007/S40257-015-0125-9). The IC50 values were calculated with GraphPad Prism 5 (GraphPad Software, Inc., San Diego, Calif., USA).

S. aureus ATCC 27660 = experiment: Mouse peritonitis model of infection; type: in vivo; conditions: for Mouse peritonitis (survived/total): iv at 20 mg/kg at 30 min and 7.5 h after infection, survival at 48 h
Method: Compounds 60b, 60c, 65b, 66b, 75b and 76b were evaluated in the mouse peritonitis model of infection (Table 2). We used the ICR out-bred strain of mice that provides a heterogeneous population, similar to the human situation, thus, ensuring the relevance of the antibacterial effect. This animal model of infection is widely used, it is easy to carry out, and the end points (death or survival) are rapidly assessed, making it less resource-intensive compared to other infection models. In addition, excellent correlation between MIC and ED50 has been shown for 14 β-lactam antibiotics using this model (Kratochwil et al., Biochem. Pharmacol. 2002, 64, 1355). The mouse peritonitis infection model continues to be an important model for evaluation of the efficacy of antibiotics against human pathogens. We use the iv route of administration in initial efficacy studies, as this allows us to test the efficacy without knowledge of the oral bioavailability of the lead. Evaluation was done at 20 mg/kg.
as §1
The mouse peritonitis model was used with S. aureus ATCC 27660, as described previously (Tran et al., Am. J. Clin. Dermatol. 2015; doi 10.1007/S40257-015-0125-9). The final bacterial inocula contained 5×10^7 cfu/mL and 5% mucin (Sigma-Aldrich Chemical Co., St Louis, Mo., USA). Just prior to inoculation, bacteria at 10^8 cfu/mL were mixed 1:1 with 10% mucin. Mice (n=6 per group) were given 0.5 mL of the bacterial inocula intraperitoneally. Mice were given two iv doses of the compounds at 30 min and 7.5 h after infection by tail vein injection. […] Mice were monitored for 48 h, at which time the number of surviving mice were counted.
The effective dose that results in survival of 50% of the mice was determined using Probit analysis (XLSTAT, New York, N.Y.). Groups of six mice per dose level were evaluated in the mouse peritonitis infection model at iv doses of 2.5, 5, 7.5, 10, 15, and 20 mg/kg and after po doses at 2.5, 5, 10, 20, and 40 mg/kg. […]

[2] = ATCC29213, Table 3.1 and SAR text, compounds of Schemes 2-4, read-out: S. aureus ATCC 29213 MIC
[3] = NCTC7171, Table 1, read-out: MIC
[4] = NCTC7171, Table 3.1, compounds of Schemes 2-4, read-out: E. faecium NCTC 7171 MIC
[5] = single iv dose at 20 mg/kg, mice
[6] = HepG2 cells, cytotoxicity, read-out: XTT HepG2 IC50
[7] = ATCC29213, quality-control, methicillin-susceptible strain, Tables 1 and 5, read-out: MIC
[8] = Staphylococcus aureus, ATCC27660, iv, 2 doses given at 30 min and 7.5 h after infection, read-out: ED50
[9] = Staphylococcus aureus, ATCC27660, po, single dose given at 1 h after infection, read-out: ED50

Row | SMILES | MIC (S. aureus ATCC 29213; [2]) [µg/mL] | MIC (E. faecium NCTC 7171; [3]) [µg/mL] | MIC (E. faecium NCTC 7171; [4]) [µg/mL] | AUC0-8 h [1, 5] [µg·min/mL] | CL [1, 5] [mL/min/kg] | IC50 (HepG2 cells; [6]) [µg/mL] | Mouse peritonitis (survived/total) (S. aureus ATCC 27660) | MIC (S. aureus ATCC 29213; [7]) [µg/mL] | other results
1 | FC(F)(F)c1ccc(Oc2ccc(-c3noc(-c4n[nH]cc4Cl)n3)cc2)cc1 [Compound 60b, 5-(4-Chloro-1H-pyrazol-3-yl)-3-(4-(4-(trifluoromethyl)phenoxy)phenyl)-1,2,4-oxadiazole] | 1 (≈ 2.46 µM) | 16 (≈ 39.3 µM) | 2 (≈ 4.92 µM) | 910 | 22.0 | 24.1 ± 1.6 (≈ 59.3 µM) | 4/6 |  | 
2 | CC(C)Nc1c[nH]nc1-c1nc(-c2ccc(Oc3ccc(C(F)(F)F)cc3)cc2)no1 [Compound 65b, N-Isopropyl-3-(3-(4-(4-(trifluoromethyl)phenoxy)phenyl)-1,2,4-oxadiazol-5-yl)-1H-pyrazol-4-amine] |  |  |  | 1313 | 15.2 |  | 1/6 |  | MIC (S. aureus ATCC 29213; ATCC29213): 0.5 µg/mL (≈ 1.16 µM); MIC (S. aureus ATCC 29213; ATCC29213, read-out: S. aureus ATCC 29213 MIC): 0.5 µg/mL (≈ 1.16 µM); MIC (E. faecium NCTC 7171; NCTC7171): 32 µg/mL (≈ 74.5 µM); MIC (E. faecium NCTC 7171; NCTC7171, read-out: E. faecium NCTC 7171 MIC): > 128 µg/mL; IC50 (HepG2 cells; HepG2, read-out: XTT HepG2 IC50): 3.9 ± 0.8 µg/mL (≈ 9.08 µM)
3 | C#Cc1c[nH]nc1-c1nc(-c2ccc(Oc3ccc(C(F)(F)F)cc3)cc2)no1 [Compound 66b, 5-(4-Ethynyl-1H-pyrazol-3-yl)-3-(4-(4-(trifluoromethyl)phenoxy)phenyl)-1,2,4-oxadiazole] | 0.25 (≈ 0.631 µM) |  | > 128 | 8261 | 2.4 | 9.8 ± 4 (≈ 24.7 µM) | 2/6 |  | S. aureus ATCC 29213 MIC (S. aureus ATCC 29213; Table 3.1, compounds of Schemes 2-4): 0.25 µg/mL
4 | FC(F)(F)c1ccc(Oc2ccc(-c3noc(-c4c[nH]cn4)n3)cc2)cc1 [Compound 76b, 5-(1H-Imidazol-4-yl)-3-(4-(4-(trifluoromethyl)phenoxy)phenyl)-1,2,4-oxadiazole] | 2 (≈ 5.37 µM) | 8 to 16 (≈ 21.5 to 43 µM) | 4 (≈ 10.7 µM) | 2054 | 9.7 | 31.5 ± 0.5 (≈ 84.6 µM) | 3/6 |  | 
5 | Fc1ccc(Oc2ccc(-c3noc(-c4n[nH]cc4Cl)n3)cc2)cc1 [Compound 60c, 5-(4-Chloro-1H-pyrazol-3-yl)-3-(4-(4-fluorophenoxy)phenyl)-1,2,4-oxadiazole] | 0.5 (≈ 1.4 µM) | 32 (≈ 89.7 µM) | 8 (≈ 22.4 µM) | 446 | 44.9 | 18.2 ± 2.9 (≈ 51 µM) | 2/6 | 1 (≈ 2.8 µM) | 
6 | FC(F)(F)c1ccc(Oc2ccc(-c3noc(-c4ccc5[nH]ccc5c4)n3)cc2)cc1 [Compound 75b, 5-(1H-Indol-5-yl)-3-(4-(4-(trifluoromethyl)phenoxy)phenyl)-1,2,4-oxadiazole] | 4 (≈ 9.49 µM) | 2 to 4 (≈ 4.75 to 9.49 µM) | 2 (≈ 4.75 µM) | 1283 | 15.2 | 75.7 ± 7.3 (≈ 180 µM) | 5/6 | 2 (≈ 4.75 µM) | fold less toxic than the lead 1 (HepG2 cells; XTT assay, HepG2 cells): 5 fold; ED50 (S. aureus ATCC 27660; [8]): 7.6 mg/kg; ED50 (S. aureus ATCC 27660; Staphylococcus aureus, ATCC27660, po, 2 doses given at 30 min and 7.5 h after infection, read-out: ED50): 1.7 mg/kg; ED50 (S. aureus ATCC 27660; [9]): 3.1 mg/kg; ED50 (S. aureus ATCC 27660; iv, 2 doses given at 30 min and 7.5 h after infection): 7.6 mg/kg; ED50 (S. aureus ATCC 27660; po, 2 doses given at 30 min and 7.5 h after infection): 1.7 mg/kg; ED50 (S. aureus ATCC 27660; po, single dose given at 1 h after infection): 3.1 mg/kg; ED50, fold better than that of 1 (S. aureus ATCC 27660; single po dose given at 1 h after infection): 14 fold
7 | Oc1ccc(-c2nc(-c3ccc(Oc4ccc(C(F)(F)F)cc4)cc3)no2)cc1 [Compound 1] | 1 (≈ 2.51 µM) | 2 (≈ 5.02 µM) | 1 (≈ 2.51 µM) |  |  | 25.8 (≈ 64.8 µM) |  | 2 (≈ 5.02 µM) | AUC(0-t) ([1]; ICR, mouse, plasma, compound 1 at 50 mg/kg iv, read-out: AUC0-8 h): 44200 ng·h/mL; CL ([1]; compound 1 at 50 mg/kg iv): 18.9^c mL/min/kg; ED50 (S. aureus ATCC 27660; [8]): 40 mg/kg; ED50 (S. aureus ATCC 27660; [9]): 44 mg/kg

Source: US10662164B2, “Non-beta lactam antibiotics” (University of Notre Dame du Lac, priority 2014, dated 2020)
